# Source: ChEMBL document CHEMBL3885881, “DrugMatrix”
# Legend:
# Rattus norvegicus [1] = species on record: Rattus norvegicus; assay: DrugMatrix - Regimen: Daily Repeat; type: toxicity, organism-based, Sprague-Dawley; parameters: regimen Daily Repeat, gender Male, age 6-8 weeks; conditions: in vivo, po, 17 mg/kg, route oral GAVAGE, dose level High, vehicle .5 % CMC
# Rattus norvegicus [2] = species on record: Rattus norvegicus; type: toxicity, organism-based, Sprague-Dawley; conditions: in vivo, po, 17 mg/kg, 24 h, route oral GAVAGE, dose level High, time 1 day, vehicle .5 % CMC
# Description: DrugMatrix - Regimen: Single
# [3] = […], tissue Plasma, time 14 day
compound,measurement,setting,value
O=C(Nc1c(Cl)cncc1Cl)c1ccc(OC(F)F)c(OCC2CC2)c1 [ROFLUMILAST],URIC ACID,"Rattus norvegicus [1]; 96 h, tissue Plasma, time 4 day",1.7 mg/dL
same,ABSOLUTE BASOPHIL,"Rattus norvegicus [1]; […], tissue Blood, time 14 day",0 CELLS/uL
same,ABSOLUTE EOSINOPHIL,"Rattus norvegicus [1]; […], tissue Blood, time 14 day",0 CELLS/uL
same,ABSOLUTE LYMPHOCYTE,"Rattus norvegicus [1]; […], tissue Blood, time 14 day",3828.67 CELLS/uL
same,ABSOLUTE MONOCYTE,"Rattus norvegicus [1]; […], tissue Blood, time 14 day",852.67 CELLS/uL
same,ABSOLUTE SEGMENTED NEUTROPHIL,"Rattus norvegicus [1]; […], tissue Blood, time 14 day",8985.33 CELLS/uL
same,BASOPHIL,"Rattus norvegicus [1]; […], tissue Blood, time 14 day",0%
same,EOSINOPHIL,"Rattus norvegicus [1]; […], tissue Blood, time 14 day",0%
same,ERYTHROCYTE COUNT,"Rattus norvegicus [1]; […], tissue Blood, time 14 day",7.38 x10E6/uL
same,HEMATOCRIT,"Rattus norvegicus [1]; […], tissue Blood, time 14 day",41.2%
same,HEMOGLOBIN,"Rattus norvegicus [1]; […], tissue Blood, time 14 day",14.73 G/DL
same,LEUKOCYTE COUNT,"Rattus norvegicus [1]; […], tissue Blood, time 14 day",13.67 x10E3/uL
same,LYMPHOCYTE,"Rattus norvegicus [1]; […], tissue Blood, time 14 day",26%
same,MEAN CORPUSCULAR HEMOGLOBIN,"Rattus norvegicus [1]; […], tissue Blood, time 14 day",20 pg
same,MEAN CORPUSCULAR HEMOGLOBIN CONCENTRATION,"Rattus norvegicus [1]; […], tissue Blood, time 14 day",35.83 G/DL
same,MONOCYTE,"Rattus norvegicus [1]; […], tissue Blood, time 14 day",6.33%
same,NEUTROPHIL,"Rattus norvegicus [1]; […], tissue Blood, time 14 day",67.67%
same,NUCLEATED RED BLOOD CELLS,"Rattus norvegicus [1]; […], tissue Blood, time 14 day",0 /100WBC
same,PLATELET COUNT,"Rattus norvegicus [1]; […], tissue Blood, time 14 day",2047.33 x10E3/uL
same,ALANINE AMINOTRANSFERASE,Rattus norvegicus [1]; [3],33 u/L
same,ALBUMIN,Rattus norvegicus [1]; [3],3.1 G/DL
same,ALKALINE PHOSPHATASE,Rattus norvegicus [1]; [3],109 u/L
same,ASPARTATE AMINOTRANSFERASE,Rattus norvegicus [1]; [3],103.67 u/L
same,BLOOD UREA NITROGEN,Rattus norvegicus [1]; [3],25 mg/dL
same,CARBON DIOXIDE,Rattus norvegicus [1]; [3],30 mmol/L
same,CHLORIDE,Rattus norvegicus [1]; [3],97.5 MEQ/L
same,CHOLESTEROL,Rattus norvegicus [1]; [3],42.5 mg/dL
same,CREATININE,Rattus norvegicus [1]; [3],0.19 mg/dL
same,GLUCOSE,Rattus norvegicus [1]; [3],128 mg/dL
same,LACTATE DEHYDROGENASE,Rattus norvegicus [1]; [3],569 u/L
same,LIPASE,Rattus norvegicus [1]; [3],10 u/L
same,PHOSPHORUS,Rattus norvegicus [1]; [3],9.15 mg/dL
same,POTASSIUM,Rattus norvegicus [1]; [3],5.72 MEQ/L
same,SODIUM,Rattus norvegicus [1]; [3],142.95 MEQ/L
same,TOTAL BILIRUBIN,Rattus norvegicus [1]; [3],0.1 mg/dL
same,TOTAL PROTEIN,Rattus norvegicus [1]; [3],6.25 G/DL
same,URIC ACID,Rattus norvegicus [1]; [3],1.7 mg/dL
same,ABSOLUTE EOSINOPHIL,Rattus norvegicus [2]; tissue Blood,58.67 CELLS/uL
same,ABSOLUTE LYMPHOCYTE,Rattus norvegicus [2]; tissue Blood,7680 CELLS/uL
same,ABSOLUTE MONOCYTE,Rattus norvegicus [2]; tissue Blood,245.33 CELLS/uL
same,ABSOLUTE SEGMENTED NEUTROPHIL,Rattus norvegicus [2]; tissue Blood,416 CELLS/uL
same,BASOPHIL,Rattus norvegicus [2]; tissue Blood,0%
same,EOSINOPHIL,Rattus norvegicus [2]; tissue Blood,0.67%
same,ERYTHROCYTE COUNT,Rattus norvegicus [2]; tissue Blood,5.72 x10E6/uL
same,HEMATOCRIT,Rattus norvegicus [2]; tissue Blood,34.83%
same,HEMOGLOBIN,Rattus norvegicus [2]; tissue Blood,12.9 G/DL
same,LEUKOCYTE COUNT,Rattus norvegicus [2]; tissue Blood,8.4 x10E3/uL
same,LYMPHOCYTE,Rattus norvegicus [2]; tissue Blood,91.33%
same,MEAN CORPUSCULAR HEMOGLOBIN,Rattus norvegicus [2]; tissue Blood,22.67 pg
same,MEAN CORPUSCULAR HEMOGLOBIN CONCENTRATION,Rattus norvegicus [2]; tissue Blood,37.1 G/DL
same,MONOCYTE,Rattus norvegicus [2]; tissue Blood,3%
same,NEUTROPHIL,Rattus norvegicus [2]; tissue Blood,5%
same,NUCLEATED RED BLOOD CELLS,Rattus norvegicus [2]; tissue Blood,0 /100WBC
same,PLATELET COUNT,Rattus norvegicus [2]; tissue Blood,734 x10E3/uL
same,ALANINE AMINOTRANSFERASE,Rattus norvegicus [2]; tissue Plasma,52.33 u/L
same,ALBUMIN,Rattus norvegicus [2]; tissue Plasma,4.07 G/DL
same,ALKALINE PHOSPHATASE,Rattus norvegicus [2]; tissue Plasma,343 u/L
same,ASPARTATE AMINOTRANSFERASE,Rattus norvegicus [2]; tissue Plasma,103 u/L
same,BLOOD UREA NITROGEN,Rattus norvegicus [2]; tissue Plasma,16.33 mg/dL
same,CARBON DIOXIDE,Rattus norvegicus [2]; tissue Plasma,32 mmol/L
same,CHLORIDE,Rattus norvegicus [2]; tissue Plasma,103.33 MEQ/L
same,CHOLESTEROL,Rattus norvegicus [2]; tissue Plasma,76.67 mg/dL
same,CREATININE,Rattus norvegicus [2]; tissue Plasma,0.17 mg/dL
same,GLUCOSE,Rattus norvegicus [2]; tissue Plasma,156.33 mg/dL
same,LACTATE DEHYDROGENASE,Rattus norvegicus [2]; tissue Plasma,133.67 u/L
same,LIPASE,Rattus norvegicus [2]; tissue Plasma,9.33 u/L
same,PHOSPHORUS,Rattus norvegicus [2]; tissue Plasma,12.87 mg/dL
same,POTASSIUM,Rattus norvegicus [2]; tissue Plasma,6.09 MEQ/L
same,SODIUM,Rattus norvegicus [2]; tissue Plasma,148.53 MEQ/L
same,TOTAL BILIRUBIN,Rattus norvegicus [2]; tissue Plasma,0.17 mg/dL
same,TOTAL PROTEIN,Rattus norvegicus [2]; tissue Plasma,6.2 G/DL
same,URIC ACID,Rattus norvegicus [2]; tissue Plasma,1.27 mg/dL
